Measured values as given in patent US20090253669A1, “Substituted Sulfonamide Compounds” (GRUENENTHAL GmbH, priority 2008, published 2009).

Key:
[1] = molecular target: T1, human B1R receptor (hB1R) (Homo sapiens, UniProt P46663); assay: FLIPR Ca2+ assay on hB1R-transfected CHO K1 cells, antagonistic action; assay type: cell-based; conditions: agonist Lys-Des-Arg9-bradykinin 0.5 nM, % of maximum achievable inhibition; for inhibition at 10 µM: CHO-K1, 10 μM test substance, read-out: hB1R [10 μM] % inhibition
T1 construct: host or cells: CHO K1 cells
T1 sequence (P46663 1-353): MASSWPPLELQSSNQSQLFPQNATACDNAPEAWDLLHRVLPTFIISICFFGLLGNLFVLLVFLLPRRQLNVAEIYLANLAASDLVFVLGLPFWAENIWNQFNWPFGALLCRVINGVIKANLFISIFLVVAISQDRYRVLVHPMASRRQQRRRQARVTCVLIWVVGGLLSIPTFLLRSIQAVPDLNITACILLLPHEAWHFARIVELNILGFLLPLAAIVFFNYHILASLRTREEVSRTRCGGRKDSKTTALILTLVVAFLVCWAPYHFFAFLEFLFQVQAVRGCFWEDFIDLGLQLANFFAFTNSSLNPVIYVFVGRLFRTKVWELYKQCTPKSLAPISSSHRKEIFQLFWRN

[2] = molecular target: T2, B1R receptor of the rat (rB1R) (Rattus norvegicus, UniProt P97583); assay: FLIPR Ca2+ assay on rB1R-transfected CHO K1 cells, antagonistic action; assay type: cell-based; conditions: agonist Des-Arg9-bradykinin 100 nM, % of maximum achievable inhibition; for inhibition at 10 µM: CHO-K1, 10 μM test substance, read-out: rB1R [10 μM] % inhibition
T2 construct: host or cells: CHO K1 cells
T2 sequence (P97583 1-337): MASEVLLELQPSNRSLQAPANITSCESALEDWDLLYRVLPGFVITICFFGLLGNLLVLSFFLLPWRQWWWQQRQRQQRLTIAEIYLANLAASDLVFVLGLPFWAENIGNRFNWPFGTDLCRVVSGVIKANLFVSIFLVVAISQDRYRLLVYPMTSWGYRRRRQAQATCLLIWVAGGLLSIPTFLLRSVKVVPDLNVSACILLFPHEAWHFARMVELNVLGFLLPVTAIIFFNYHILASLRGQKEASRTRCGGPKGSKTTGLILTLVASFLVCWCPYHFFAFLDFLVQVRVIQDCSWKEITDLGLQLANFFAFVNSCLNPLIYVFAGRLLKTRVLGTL

| SMILES | inhibition at 10 µM [1] [%] | inhibition at 10 µM [2] [%] | hB1R [10 μM] % inhibition ([1]; 10 μM test substance) [%] | rB1R [10 μM] % inhibition ([2]; 10 μM test substance) [%] |
| --- | --- | --- | --- | --- |
| CN(CCC1CCC(CCc2ccccc2)(N(C)C)CC1)C(=O)COCC1CCc2ccccc2N1S(=O)(=O)c1ccc(Cl)c(Cl)c1 (centres unmarked) [Compound 101, 2-((1-(3,4-dichlorophenylsulfonyl)-1,2,3,4-tetrahydroquinolin-2-yl)methoxy)-N-(2-(4-(dimethylamino)-4-phenethylcyclohexyl)ethyl)-N-methylacetamide] | 99 | 88 | – | – |
| COc1cc(C)c(S(=O)(=O)N2CCCC2COCC(=O)NC2CCC(c3ccccc3)(N3CCCC3)CC2)c(C)c1 (centres unmarked) [Compound 145, 2-((1-(4-methoxy-2,6-dimethylphenylsulfonyl)pyrrolidin-2-yl)methoxy)-N-(4-phenyl-4-(pyrrolidin-1-yl)cyclohexyl)acetamide] | 92 | 110 | – | – |
| CN(CCOCC(=O)NC1CCC(Cc2ccccc2)(N2CCCC2)CC1)S(=O)(=O)c1ccc(Cl)cc1Cl (centres unmarked) [Compound 193, N-(4-benzyl-4-(pyrrolidin-1-yl)cyclohexyl)-2-(2-(2,4-dichloro-N-methylphenylsulfonamido)ethoxy)acetamide] | 93 | 34 | – | – |
| Cc1cc(S(=O)(=O)N2CCCCC2CCC(=O)N(C)CCC2CCC(CCc3ccccc3)(N3CCCC3)CC2)c(C)cc1Cl (centres unmarked) [Compound 131, 3-(1-(4-chloro-2,5-dimethylphenylsulfonyl)piperidin-2-yl)-N-methyl-N-(2-(4-phenethyl-4-(pyrrolidin-1-yl)cyclohexyl)ethyl)propanamide] | 99 | 47 | – | – |
| CN(C)C1(c2ccccc2)CCC(NC(=O)COC2CCN(S(=O)(=O)c3c(Cl)cc(Cl)cc3Cl)C2)CC1 (centres unmarked) [Compound 198, N-(4-(dimethylamino)-4-phenylcyclohexyl)-2-(1-(2,4,6-trichlorophenylsulfonyl)pyrrolidin-3-yloxy)acetamide] | 63 | 47 | – | – |
| COc1cc(C)c(S(=O)(=O)N2CCCCC2COCC(=O)NCC2CCC(c3ccccc3)(N3CCOCC3)CC2)c(C)c1 (centres unmarked) [Compound 157, 2-((1-(4-methoxy-2,6-dimethylphenylsulfonyl)piperidin-2-yl)methoxy)-N-((4-morpholino-4-phenylcyclohexyl)methyl)acetamide] | 76 | 99 | – | – |
| Cc1cc(S(=O)(=O)N2CCCCC2CCC(=O)N2CCC(Cc3ccccc3)(N(C)C)CC2)c(C)cc1Cl (centres unmarked) [Compound 80, 1-(4-benzyl-4-(dimethylamino)piperidin-1-yl)-3-(1-(4-chloro-2,5-dimethylphenylsulfonyl)piperidin-2-yl)propan-1-one] | 86 | 99 | – | – |
| Cc1cc(S(=O)(=O)N2CCCCC2CCC(=O)N2CCC(CCc3ccccc3)(N(C)C)CC2)c(C)cc1Cl (centres unmarked) [Compound 137, 3-(1-(4-chloro-2,5-dimethylphenylsulfonyl)piperidin-2-yl)-1-(4-(dimethylamino)-4-phenethylpiperidin-1-yl)propan-1-one] | 104 | 30 | – | – |
| COc1cc(C)c(S(=O)(=O)N2CCCC[C@H]2COCC(=O)N(C)CCC2CCC(c3ccccc3)(N3CCCC3)CC2)c(C)c1 (stereo partly drawn) [Compound 200, (S)-2-((1-(4-methoxy-2,6-dimethylphenylsulfonyl)piperidin-2-yl)methoxy)-N-methyl-N-(2-(4-phenyl-4-(pyrrolidin-1-yl)cyclohexyl)ethyl)acetamide] | 99 | 105 | – | – |
| COc1cc(C)c(S(=O)(=O)N(C)CCOCC(=O)N2CCC(c3cccnc3)(N(C)C)CC2)c(C)c1 [Compound 208, N-(2-(2-(4-(Dimethylamino)-4-(pyridin-3-yl)piperidin-1-yl)-2-oxoethoxy)ethyl)-4-methoxy-N,2,6-trimethylbenzenesulfonamide] | 100 | 102 | – | – |
| O=C(COCC1CCCN1S(=O)(=O)c1c(Cl)cc(Cl)cc1Cl)NC1CCC(c2ccccc2)(N2CCOCC2)CC1 (centres unmarked) [Compound 164, N-(4-morpholino-4-phenylcyclohexyl)-2-((1-(2,4,6-trichlorophenylsulfonyl)pyrrolidin-2-yl)methoxy)acetamide] | 74 | 90 | – | – |
| COc1cc(C)c(S(=O)(=O)N2CCCCC2COCC(=O)N(C)CCCC2CCC(c3cccc(F)c3)(N3CCCC3)CC2)c(C)c1 (centres unmarked) [Compound 204, N-(3-(4-(3-fluorophenyl)-4-(pyrrolidin-1-yl)cyclohexyl)propyl)-2-((1-(4-methoxy-2,6-dimethylphenylsulfonyl)piperidin-2-yl)methoxy)-N-methylacetamide] | 99 | 103 | – | – |
| COc1cc(C)c(S(=O)(=O)N2CCC(OCC(=O)N(C)CC3CCC(Cc4ccccc4)(N4CCN(C)CC4)CC3)C2)c(C)c1 (centres unmarked) [Compound 174, N-((4-benzyl-4-(4-methylpiperazin-1-yl)cyclohexyl)methyl)-2-(1-(4-methoxy-2,6-dimethylphenylsulfonyl)pyrrolidin-3-yloxy)-N-methylacetamide] | 99 | 78 | – | – |
| CN1CCN(C2(Cc3ccccc3)CCC(CN(C)C(=O)COCC3CCCN3S(=O)(=O)c3c(Cl)cc(Cl)cc3Cl)CC2)CC1 (centres unmarked) [Compound 168, N-((4-benzyl-4-(4-methylpiperazin-1-yl)cyclohexyl)methyl)-N-methyl-2-((1-(2,4,6-trichlorophenylsulfonyl)pyrrolidin-2-yl)methoxy)acetamide] | 88 | 88 | – | – |
| COc1cc(C)c(S(=O)(=O)N2CCCC2COCC(=O)NC2CCC(c3ccccc3)(N3CCOCC3)CC2)c(C)c1 (centres unmarked) [Compound 160, 2-((1-(4-methoxy-2,6-dimethylphenylsulfonyl)pyrrolidin-2-yl)methoxy)-N-(4-morpholino-4-phenylcyclohexyl)acetamide] | 93 | 98 | – | – |
| COc1cc(C)c(S(=O)(=O)N2CCCCC2COCC(=O)NC2CCC(c3ccccc3)(N3CCOCC3)CC2)c(C)c1 (centres unmarked) [Compound 158, 2-((1-(4-methoxy-2,6-dimethylphenylsulfonyl)piperidin-2-yl)methoxy)-N-(4-morpholino-4-phenylcyclohexyl)acetamide] | 87 | 99 | – | – |
| CN1CCN(C2(Cc3ccccc3)CCN(C(=O)COCC3CCc4ccccc4N3S(=O)(=O)c3ccc(Cl)c(Cl)c3)CC2)CC1 (centres unmarked) [Compound 108, 1-(4-benzyl-4-(4-methylpiperazin-1-yl)piperidin-1-yl)-2-((1-(3,4-dichlorophenylsulfonyl)-1,2,3,4-tetrahydroquinolin-2-yl)methoxy)ethanone] | 60 | 79 | – | – |
| COc1cc(C)c(S(=O)(=O)N(C)CCOCC(=O)N2CCC(c3cccc(F)c3)(N3CCN(C)CC3)CC2)c(C)c1 [Compound 44, N-(2-(2-(4-(3-fluorophenyl)-4-(4-methylpiperazin-1-yl)piperidin-1-yl)-2-oxoethoxy)ethyl)-4-methoxy-N,2,6-trimethylbenzenesulfonamide] | – | – | 102 | 101 |
| Cc1cc(S(=O)(=O)N2CCCCC2CCC(=O)N2CCC(CCc3ccccc3)(N3CCN(C)CC3)CC2)c(C)cc1Cl (centres unmarked) [Compound 122, 3-(1-(4-chloro-2,5-dimethylphenylsulfonyl)piperidin-2-yl)-1-(4-(4-methylpiperazin-1-yl)-4-phenethylpiperidin-1-yl)propan-1-one] | 105 | 66 | – | – |
| CN(CC1CCC(Cc2ccccc2)(N2CCCC2)CC1)C(=O)CC(NS(=O)(=O)c1ccc2ccccc2c1)c1ccccc1 (centres unmarked) [Compound 112, N-((4-benzyl-4-(pyrrolidin-1-yl)cyclohexyl)methyl)-N-methyl-3-(naphthalene-2-sulfonamido)-3-phenylpropanamide] | 97 | 77 | – | – |
| CN1CCN(C2(CCc3ccccc3)CCN(C(=O)COCC3CCc4ccccc4N3S(=O)(=O)c3ccc(Cl)c(Cl)c3)CC2)CC1 (centres unmarked) [Compound 116, 2-((1-(3,4-dichlorophenylsulfonyl)-1,2,3,4-tetrahydroquinolin-2-yl)methoxy)-1-(4-(4-methylpiperazin-1-yl)-4-phenethylpiperidin-1-yl)ethanone] | 57 | 71 | – | – |
| O=C(COCC1CCCCN1S(=O)(=O)c1c(Cl)cc(Cl)cc1Cl)NC1CCC(c2ccccc2)(N2CCCC2)CC1 (centres unmarked) [Compound 142, N-(4-phenyl-4-(pyrrolidin-1-yl)cyclohexyl)-2-((1-(2,4,6-trichlorophenylsulfonyl)piperidin-2-yl)methoxy)acetamide] | 92 | 113 | – | – |
